From article PMC5668376, “Stochastic palmitoylation of accessible cysteines in membrane proteins revealed by native mass spectrometry” (Nature Communications, 2017)

Biological target: T1, bacteriorhodopsin (Halobacterium salinarum, UniProt P02945)
T1 construct: gene bop; synthetic gene (GeneArt), start codon from vector, C-terminal triple StrepII tag, transiently expressed retinal-free in HEK293-EBNA1, purified in DDM; cysteine-free parent protein
T1 sequence (P02945 14-262): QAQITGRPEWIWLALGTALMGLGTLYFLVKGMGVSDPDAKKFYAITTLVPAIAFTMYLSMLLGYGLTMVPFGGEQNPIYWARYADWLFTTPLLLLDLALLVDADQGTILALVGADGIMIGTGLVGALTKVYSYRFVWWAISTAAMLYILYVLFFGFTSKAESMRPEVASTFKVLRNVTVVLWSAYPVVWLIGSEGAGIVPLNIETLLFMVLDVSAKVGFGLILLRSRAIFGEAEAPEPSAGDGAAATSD
Assay: native mass spectrometry of purified protein
Assay type: binding
Conditions: retinal added during purification; DDM micelles; 150 mM ammonium acetate pH 7.5; isomer not stated

**Q.** `CC1=C(/C=C/C(C)=C/C=C/C(C)=C/C=O)C(C)(C)CCC1` [retinal] was tested. Which “native mass spectrometry of purified protein” value did it give?
**A.** Upon addition of retinal during purification, bacteriorhodopsin mass spectra indicated peaks corresponding to the mass
